Reference: US20220288058A1, “COMBINATION THERAPY USING A MALT1 INHIBITOR AND A BTK INHIBITOR” (Janssen Pharmaceutica NV, priority 2021, published 2022)

Tests used:
Assay type in all cases: in vivo, mouse
[1] = tested on: OCI-LY10 human DLBCL xenografts; experiment: Study 2: Compound B monotherapy efficacy, OCI-LY10 xenografts in NSG mice; settings: for TGI / ΔTGI: Study 2, Day 45; for animals succumbed to disease burden / animals removed from the study due to tumor progression: Study 2; for animals succumbed to disease burden: by 17 days into the 21-day treatment; for animals removed from the study due to tumor progression: by 21 days of treatment
Method: In efficacy study, Study 2, NSG female animals were injected SC into the right find flank with 5×10^6 OCI-LY10 cells in PBS containing 50% Matrigel™. On day 32, mice were randomized based on tumor volume (mean tumor volume of 207 mm^3) and treated orally once or twice daily with BTK inhibitor Compound B according to treatment schedule above (see Table 4) for 21 days. After the last dose on Day 53, blood was collected serially via submandibular vein sampling from 5 animals per time point per treatment group at 2, 4, 12, and 24 hours after dosing. Blood was collected in EDTA and plasma was obtained via centrifugation at 3000 rpm for 10 minutes. Samples were snap frozen and stored at […] for possible future analyses.
(§1) Tumor volume in SC models was calculated using the formula: tumor volume (mm^3)=(D×d^2/2); where “D” represents the larger diameter and “d” the smaller diameter of the tumor as determined by calliper measurements. Tumor volume data was graphed as the mean tumor volume f SEM.
The percent ΔTGI was defined as the difference between mean tumor burden of the treatment and control groups, calculated using the following formula: ([(TVc−TVc0)−(TVt−TVt0)]/(TVc−TVc0))×100, where “TVc” is the mean tumor burden of a given control group, “TVc0” is the mean initial tumor burden of a given control group, “TVt” is the mean tumor burden of the treatment group, and “TVt0” is the mean initial tumor burden of the treatment group. The percent tumor growth inhibition (TGI) was defined as the difference between mean tumor volumes of the treated and control groups, calculated as: ((TVc−TVt)/TVc)×100 where “TVc” is the mean tumor volume of the control group and “TVt” is the mean tumor volume of the treatment group. […] Johnson et al., Br J Cancer. 2001; 84(10):1424-1431.

Pharmacokinetics in mice = experiment: Pharmacokinetics in mice
[2] = tested on: OCI-LY10 human DLBCL xenografts; experiment: Study 3: combination efficacy (Compound B QD + Compound A BID), OCI-LY10 xenografts in NSG mice; settings: Compound B 30 mg/kg QD
Method: Following early animal dropouts in Study 2 due to tumor progression (metastasis and hindlimb paralysis), NSG female mice in Study 3 and Study 4 were injected SC into the right flank with a lower cell number (1×10^6 OCI-LY10 cells) in PBS containing 50% Matrigel™. On day 35 (Study 3) or day 32 (Study 4), mice were randomized based on tumor volume (see Table 4) and dosed orally QD day with Compound B and BID with Compound A (Study 3) or BID for both compounds (Study 4) with various dose concentrations according to treatment schedule above (see Table 4) for a period of 21 days.
as §1
The percent ΔTGI was defined as the difference between mean tumor burden of the treatment and control groups, calculated using the following formula: ([(TVc−TVc0)−(TVt−TVt0)]/(TVc−TVc0))×100, where “TVc” is the mean tumor burden of a given control group, “TVc0” is the mean initial tumor burden of a given control group, “TVt” is the mean tumor burden of the treatment group, and “TVt0” is the mean initial tumor burden of the treatment group. The percent tumor growth inhibition (TGI) was defined as the difference between mean tumor volumes of the treated and control groups, calculated as: ((TVc−TVt)/TVc)×100 where “TVc” is the mean tumor volume of the control group and “TVt” is the mean tumor volume of the treatment group. […]
Tumor regression was calculated when mean tumor burden in treated group was smaller than the tumor burden at start of treatment of the same treated group. The % Tumor Regression (TR), quantified to reflect the treatment-related reduction of tumor volume as compared to baseline independent of the control group, was calculated using the following formula: % TR=(1-mean (TVti/TVt0i))×100 where “TVti” is the tumor burden of individual animals in a treatment group, and “TVt0i” is the initial tumor burden of the animal. […]

Which results are given for `C=CC(=O)N[C@H]1CCC[C@H]1NC(=O)c1sc2nccc3c2c1NC(=O)N3c1cnc(CC(C)C)cc1C` (atropisomer, axis not shown) [Compound B, N-((1R,2S)-2-acrylamidocyclopentyl)-5-(S)-(6-isobutyl-4-methylpyridin-3-yl)-4-oxo-4,5-dihydro-3H-1-thia-3,5,8-triazaacenaphthylene-2-carboxamide]?
TGI ([1]; Compound B 5 mg/kg BID po): 26%; ΔTGI ([1]; Compound B 5 mg/kg BID po): 34%; TGI ([1]; Compound B 10 mg/kg QD po): 24%; ΔTGI ([1]; Compound B 10 mg/kg QD po): 30%; TGI ([1]; Compound B 30 mg/kg QD po): 35%; ΔTGI ([1]; Compound B 30 mg/kg QD po): 45%; TGI ([1]; Compound B 50 mg/kg BID po): 78%; ΔTGI ([1]; Compound B 50 mg/kg BID po): 102%; animals succumbed to disease burden ([1]; Compound B 10 mg/kg QD): two animals; animals succumbed to disease burden ([1]; Compound B 100 mg/kg QD): a mouse; animals removed from the study due to tumor progression ([1]; Compound B 5 mg/kg BID): 4/10; animals removed from the study due to tumor progression ([1]; Compound B 10 mg/kg QD): 7/10; animals removed from the study due to tumor progression ([1]; Compound B 15 mg/kg BID): 1/10; animals removed from the study due to tumor progression ([1]; Compound B 30 mg/kg QD): 2/10; animals removed from the study due to tumor progression ([1]; Compound B 100 mg/kg QD): 3/10; half-life (Pharmacokinetics in mice; NSG, mouse, in vivo, NSG mice, read-out: half-life (converted)): 42 min; clearance (Pharmacokinetics in mice; mice): moderate clearance; TGI ([2]; Study 3, day 53): 50%; ΔTGI ([2]; Study 3, day 53): 65%; animals removed due to clinical signs of tumor progression ([2]; Study 3): 1
